From patent publication US7718673B2, “Isonipecotamides for the treatment of integrin-mediated disorders” (Ortho-McNeil Pharmaceutical, Inc., priority 1999, dated 2010) come the findings set out here.

One experiment deals with T1, Human αvβ3 (Homo sapiens, UniProt P05106+P06756).
T1 construct: purchased Chemicon International Inc., Temecula, Calif
The experiment in a line: In vitro solid phase purified αvβ3 binding assay (vitronectin/αvβ3). The settings on record: vitronectin binding to immobilized αvβ3; read-out: αvβ3 IC50. How it is done: In Vitro Solid Phase Purified αvβ3 Binding Assay
The vitronectin/αvβ3 binding assay methods were derived from Mehta et al. (Biochem J. 1998, 330, 861). Human αvβ3 (Chemicon International Inc., Temecula, Calif.), at a concentration of 1 μg/ml dissolved in Tris buffer (20 mM Tris, 1 mM CaCl2, […], 10 μM MnCl2, 150 mM NaCl), was immobilized on Immulon 96 well plates (Dynex Technologies, Chantilly, Va.) overnight at 4° C. Plates were washed and treated with blocking buffer (3% BSA in Tris buffer) for 2 h at 37° C. Plates were then rinsed 2 times with Tris buffer containing 0.3% BSA and 0.2% Tween20 (polyoxyethylenesorbitan monolaurate). Five minutes prior to the addition of 5 nM vitronectin (Sigma, St. Louis, Mo.), synthesized compounds were added to wells in duplicate. Each plate included c-RGDfV as an internal control. Following a 3 hour incubation at 37° C., plates were washed 5 times in assay buffer. An anti-human vitronectin IgG rabbit polyclonal antibody (Calbiochem, San Diego, Calif.) was added (1:2000) and plates were incubated for 1 hour at room temperature. VectaStain ABC peroxidase kit reagents (Vector Laboratories, Burlingame, Calif.) employing a biotin labeled anti-rabbit IgG, were utilized for detection of bound antibody. Plates were read at 490 nm on a Molecular Devices (Sunnyvale, Calif.) microplate reader.

The target of experiment [1] is RGD-affinity purified GPIIb/IIIa (Homo sapiens, UniProt P05106+P08514). The experiment in a line: In vitro solid phase purified GPIIb/IIIa binding assay (biotinylated fibrinogen). The following applies: fibrinogen binding to immobilized GPIIb/IIIa; read-out: IIb/IIIa IC50. On the procedure: In Vitro Solid Phase Purified GP IIB/IIIA Binding Assay
RGD-affinity purified GPIIb/IIIa, sequence (P08514 32-887 limits assumed): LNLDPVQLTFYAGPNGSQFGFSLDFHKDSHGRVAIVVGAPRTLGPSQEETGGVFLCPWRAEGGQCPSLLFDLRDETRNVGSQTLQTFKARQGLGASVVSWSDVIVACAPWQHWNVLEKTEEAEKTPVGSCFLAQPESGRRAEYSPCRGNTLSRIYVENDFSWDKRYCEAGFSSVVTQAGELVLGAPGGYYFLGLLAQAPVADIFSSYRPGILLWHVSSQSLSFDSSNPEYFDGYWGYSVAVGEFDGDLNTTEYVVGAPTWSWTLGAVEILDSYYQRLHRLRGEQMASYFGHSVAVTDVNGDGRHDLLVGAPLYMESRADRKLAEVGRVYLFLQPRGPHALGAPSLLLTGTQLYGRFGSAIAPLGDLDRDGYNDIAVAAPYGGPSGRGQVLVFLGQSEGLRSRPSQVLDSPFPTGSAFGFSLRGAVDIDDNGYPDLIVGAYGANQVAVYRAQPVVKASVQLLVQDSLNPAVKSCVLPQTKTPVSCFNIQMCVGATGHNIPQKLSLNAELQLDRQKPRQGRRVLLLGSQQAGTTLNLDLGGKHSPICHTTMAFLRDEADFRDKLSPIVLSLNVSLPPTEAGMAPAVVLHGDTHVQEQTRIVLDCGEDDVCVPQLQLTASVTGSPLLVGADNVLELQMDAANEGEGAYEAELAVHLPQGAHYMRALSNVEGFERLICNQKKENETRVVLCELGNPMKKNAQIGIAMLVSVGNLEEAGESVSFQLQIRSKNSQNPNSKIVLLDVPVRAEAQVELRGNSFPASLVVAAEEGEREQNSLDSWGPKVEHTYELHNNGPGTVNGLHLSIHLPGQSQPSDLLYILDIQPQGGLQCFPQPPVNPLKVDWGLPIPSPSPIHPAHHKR
RGD-affinity purified GPIIb/IIIa, sequence (P08514 891-1039 partner limits assumed): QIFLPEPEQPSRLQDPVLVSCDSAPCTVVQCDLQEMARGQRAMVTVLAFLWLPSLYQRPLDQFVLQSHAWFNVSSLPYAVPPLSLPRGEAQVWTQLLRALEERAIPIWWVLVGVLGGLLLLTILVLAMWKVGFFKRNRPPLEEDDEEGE
RGD-affinity purified GPIIb/IIIa, sequence (P05106 27-788): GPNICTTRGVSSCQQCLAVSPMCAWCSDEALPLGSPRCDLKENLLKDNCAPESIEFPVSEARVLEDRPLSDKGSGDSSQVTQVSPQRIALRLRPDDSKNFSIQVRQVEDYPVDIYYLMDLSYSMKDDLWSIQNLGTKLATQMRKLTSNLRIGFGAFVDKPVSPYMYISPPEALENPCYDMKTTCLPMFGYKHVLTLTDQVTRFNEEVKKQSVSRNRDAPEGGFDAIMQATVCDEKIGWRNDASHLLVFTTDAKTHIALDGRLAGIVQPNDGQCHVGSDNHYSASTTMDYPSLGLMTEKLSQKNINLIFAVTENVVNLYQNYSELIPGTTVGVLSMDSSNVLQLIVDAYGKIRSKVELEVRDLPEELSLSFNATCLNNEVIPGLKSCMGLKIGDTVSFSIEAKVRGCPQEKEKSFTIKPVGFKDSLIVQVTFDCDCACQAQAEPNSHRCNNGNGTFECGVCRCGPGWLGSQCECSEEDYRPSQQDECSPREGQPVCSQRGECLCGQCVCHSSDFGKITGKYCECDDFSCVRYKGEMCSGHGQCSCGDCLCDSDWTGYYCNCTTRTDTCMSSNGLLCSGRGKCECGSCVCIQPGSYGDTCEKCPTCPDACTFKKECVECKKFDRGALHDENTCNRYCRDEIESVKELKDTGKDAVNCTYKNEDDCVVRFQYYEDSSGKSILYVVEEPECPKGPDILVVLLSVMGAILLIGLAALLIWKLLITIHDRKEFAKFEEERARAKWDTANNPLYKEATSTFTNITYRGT
The plate was covered and incubated overnight at 4° C. The GPIIb/IIIa solution was discarded and 150 μl of 5% BSA was added and incubated at RT for 1-3 h. The plate was washed extensively with modified Tyrodes buffer. Biotinylated fibrinogen (25 μl/well) at 2× final concentration was added to the wells that contain the test compounds (25 μl/well). The plate was covered and incubated at RT for 2-4 h. Twenty minutes prior to incubation completion, one drop of Reagent A (VectaStain ABC Horse Radish Peroxidase kit, Vector Laboratories, Inc.) and one drop Reagent B were added with mixing to 5 mL modified Tyrodes buffer mix and let stand. The ligand solution was discarded and the plate washed (5×200 μl/well) with modified Tyrodes buffer. Vecta Stain HRP-Biotin-Avidin reagent (50 μl/well, as prepared above) was added and incubated at RT for 15 min. The Vecta Stain solution was discarded and the wells washed (5×200 μl/well) with modified Tyrodes buffer. Developing buffer (10 mL of 50 mM citrate/phosphate buffer @ pH 5.3, 6 mg o-phenylenediamine, 6 μl 30% H2O2; 50 μl/well) was added and incubated at RT for 3-5 min, and then 2 NH2SO4 (50 μl/well) was added. The absorbance was read at 490 nm.

T1 sequence (P06756 31-889 limits assumed): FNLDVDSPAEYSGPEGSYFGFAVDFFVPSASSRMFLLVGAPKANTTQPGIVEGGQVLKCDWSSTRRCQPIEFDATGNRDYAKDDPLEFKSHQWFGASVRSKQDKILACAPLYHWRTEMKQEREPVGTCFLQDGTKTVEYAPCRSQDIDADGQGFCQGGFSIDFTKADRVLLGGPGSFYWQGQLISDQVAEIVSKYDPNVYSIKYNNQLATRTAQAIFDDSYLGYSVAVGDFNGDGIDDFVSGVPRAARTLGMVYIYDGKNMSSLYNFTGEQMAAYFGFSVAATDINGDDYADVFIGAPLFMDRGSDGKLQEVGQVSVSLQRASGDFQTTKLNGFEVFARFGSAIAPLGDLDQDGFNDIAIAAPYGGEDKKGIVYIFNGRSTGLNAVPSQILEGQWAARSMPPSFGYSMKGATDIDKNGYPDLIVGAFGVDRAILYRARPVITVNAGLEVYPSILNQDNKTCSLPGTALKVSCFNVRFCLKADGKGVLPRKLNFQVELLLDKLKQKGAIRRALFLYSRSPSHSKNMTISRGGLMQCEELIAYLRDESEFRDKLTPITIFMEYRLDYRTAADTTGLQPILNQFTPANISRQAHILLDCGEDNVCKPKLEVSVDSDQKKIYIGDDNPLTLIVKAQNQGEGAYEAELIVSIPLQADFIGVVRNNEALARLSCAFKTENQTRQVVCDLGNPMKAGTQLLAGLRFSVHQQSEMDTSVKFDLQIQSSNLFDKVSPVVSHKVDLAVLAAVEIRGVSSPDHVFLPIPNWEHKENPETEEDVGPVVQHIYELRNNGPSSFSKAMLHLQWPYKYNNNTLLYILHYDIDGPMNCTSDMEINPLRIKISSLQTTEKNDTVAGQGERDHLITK
T1 sequence (P06756 891-1048 partner limits assumed): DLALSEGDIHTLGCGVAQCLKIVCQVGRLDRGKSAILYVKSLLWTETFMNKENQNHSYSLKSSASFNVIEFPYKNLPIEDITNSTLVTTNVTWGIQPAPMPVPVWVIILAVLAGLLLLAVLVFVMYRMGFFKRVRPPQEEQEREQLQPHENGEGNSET
T1 sequence (P05106 27-788): as the sequence (P05106 27-788) above

On to `O=C(O)C[C@H](NC(=O)C1CCN(C(=O)CCCNC2=NCCN2)CC1)c1ccc(Cl)nc1` [Compound 3, 6-chloro-β-[[[1-[4-[(4,5-dihydro-1H-imidazol-2-yl)amino]-1-oxobutyl]-4-piperidinyl]carbonyl]amino]-, (β^3S)-3-pyridinepropanoic acid], for which the IC50 at Human αvβ3 amounted to 28 nM; in experiment [1], 130 nM.
`C[C@H](CC(=O)O)NC(=O)C1CCN(C(=O)CCCNC2=NCCN2)CC1` [Compound 4, 3-[[[1-[4-[(4,5-dihydro-1H-imidazol-2-yl)amino]-1-oxobutyl]-4-piperidinyl]carbonyl]amino]-, (3R)-butanoic acid]: the IC50 is 150 nM at Human αvβ3 and 1700 nM in experiment [1].
For `CC(CNC1=NCCN1)C(=O)N1CCC(C(=O)N[C@@H](CC(=O)O)c2cnc3ccccc3c2)CC1` (stereo partly drawn) [Compound 5, β-[[[1-[3-[(4,5-dihydro-1H-imidazol-2-yl)amino]-2-methyl-1-oxopropyl]-4-piperidinyl]carbonyl]amino]-, (β^3S)-3-quinolinepropanoic acid] the same measures were 15 nM and 23 nM.
For `O=C(O)CC(NC(=O)C1CCN(C(=O)CCc2nc3ccccc3[nH]2)CC1)c1cnc2ccccc2c1` (centres unmarked) [Compound 7] the same measures were 490 nM and 7900 nM.
Regarding `O=C(N[C@@H](CNC(=O)C1CCN(C(=O)CCc2nc3ccccc3[nH]2)CC1)C(=O)O)OCc1ccccc1` [Compound 8], the IC50 was 550 nM at Human αvβ3 and 1100 nM in experiment [1].
Take `O=C(O)CC(NC(=O)C1CCN(C(=O)C2CCNCC2)CC1)c1cnc2ccccc2c1` (centres unmarked) [Compound 9]: the IC50 was 30000 nM on Human αvβ3 and 300 nM in experiment [1].
For `O=C(N[C@@H](CNC(=O)C1CCN(C(=O)NCCCn2ccnc2)CC1)C(=O)O)OCc1ccccc1` [Compound 10] the same measures were more than 50000 nM and 950 nM.
Taken in the same sequence, the figures for `O=C(N[C@@H](CNC(=O)C1CCN(C(=O)C2CCN(C3=NCCN3)CC2)CC1)C(=O)O)OCc1ccccc1` [Compound 11, 3-[[[1-[[1-(4,5-dihydro-1H-imidazol-2-yl)-4-piperidinyl]carbonyl]-4-piperidinyl]carbonyl]amino]-N-[(phenylmethoxy)carbonyl]-L-alanine] were 1300 nM and 2.6 nM.
Taken in the same sequence, the figures for `O=C(N[C@@H](CNC(=O)C1CCN(C(=O)CCNC2=NCCN2)CC1)C(=O)O)OCc1ccccc1` [Compound 12] were 20 nM and 14 nM.
As for `O=C(O)CC(NC(=O)C1CCN(C(=O)CCc2nc3ccccc3[nH]2)CC1)c1ccc2c(c1)OCCO2` (centres unmarked) [Compound 13], the IC50 at Human αvβ3 worked out at 10000 nM; in experiment [1], 29000 nM.
On to `O=C(N[C@@H](CNC(=O)C1CCN(C(=O)[C@@H]2C=C[C@H](NC3=NCCN3)C2)CC1)C(=O)O)OCc1ccccc1` [Compound 14, 3-[[[1-[[(1S,4R)-4-[(4,5-dihydro-1H-imidazol-2-yl)amino]-2-cyclopenten-1-yl]carbonyl]-4-piperidinyl]carbonyl]amino]-N-[(phenylmethoxy)carbonyl]-L-alanine], for which the IC50 at Human αvβ3 amounted to 50 nM; in experiment [1], 9.2 nM.
Taken in the same sequence, the figures for `O=C(O)CC(NC(=O)C1CCN(C(=O)CCc2nc3ccccc3[nH]2)CC1)c1cccc2ccccc12` (centres unmarked) [Compound 15] were more than 5000 nM and 17000 nM.
Taken in the same sequence, the figures for `O=C(N[C@@H](CNC(=O)C1CCN(C(=O)[C@H]2C=C[C@@H](NC3=NCCN3)C2)CC1)C(=O)O)OCc1ccccc1` [Compound 17, 3-[[[1-[[(1R,4S)-4-[(4,5-dihydro-1H-imidazol-2-yl)amino]-2-cyclopenten-1-yl]carbonyl]-4-piperidinyl]carbonyl]amino]-N-[(phenylmethoxy)carbonyl]-L-alanine] were 380 nM and 5.4 nM.
Taken in the same sequence, the figures for `O=C(N[C@@H](CNC(=O)C1CCN(C(=O)CC(CNC2=NCCN2)c2ccc(Cl)cc2)CC1)C(=O)O)OCc1ccccc1` (some centres unmarked) [Compound 18] were 50 nM and 15 nM.
Regarding `O=C(O)C[C@H](NC(=O)C1CCN(C(=O)CC2(CNC3=NCCN3)CCCCC2)CC1)c1ccc(Cl)nc1` [Compound 19], the results for the IC50 (on Human αvβ3; in experiment [1]) were 320 nM and 71 nM, respectively.
Taken in the same sequence, the figures for `O=C(O)CC(NC(=O)C1CCN(C(=O)CCCNC2=NCCN2)CC1)c1ccsc1` (centres unmarked) [Compound 20] were 530 nM and 4900 nM.
Taken in the same sequence, the figures for `O=C(O)CC(NC(=O)C1CCN(C(=O)CCCNC2=NCCN2)CC1)c1ccc2c(c1)OCO2` (centres unmarked) [Compound 21] were 23 nM and 410 nM.
Taken in the same sequence, the figures for `Cc1cccc(C(CC(=O)O)NC(=O)C2CCN(C(=O)CCCNC3=NCCN3)CC2)c1` (centres unmarked) [Compound 22] were more than 500 nM and 38000 nM.
Turning to `O=C(O)CC(NC(=O)C1CCN(C(=O)CCCNC2=NCCN2)CC1)c1ccc2c(c1)CCO2` (centres unmarked) [Compound 23], the results for the IC50 (at Human αvβ3; in experiment [1]) were more than 500 nM and 7300 nM, respectively.
Take `COc1cc(OC)cc(C(CC(=O)O)NC(=O)C2CCN(C(=O)CCCNC3=NCCN3)CC2)c1` (centres unmarked) [Compound 24]: the figures for the IC50 (on Human αvβ3; in experiment [1]) were 64 nM and 2200 nM, respectively.
As for `O=C(O)CC(NC(=O)C1CCN(C(=O)CCCNC2=NCCN2)CC1)c1cccnc1` (centres unmarked) [Compound 25], the IC50 was 32 nM at Human αvβ3 and 2900 nM in experiment [1].
Taken in the same sequence, the figures for `O=C(O)CC(NC(=O)C1CCN(C(=O)CCCNC2=NCCN2)CC1)c1cc(Cl)cc(Cl)c1` (centres unmarked) [Compound 26] were 120 nM and 1800 nM.
Regarding `O=C(O)CC(NC(=O)C1CCN(C(=O)CCCNC2=NCCN2)CC1)c1cccc(C(F)(F)F)c1` (centres unmarked) [Compound 27], the IC50 on Human αvβ3 is more than 500 nM; in experiment [1], 13000 nM.
For `O=C(N[C@@H](CNC(=O)C1CCN(C(=O)OCCNC2=NCCN2)CC1)C(=O)O)OCc1ccccc1` [Compound 28, 4-[[[(2S)-2-carboxy-2-[[(phenylmethoxy)carbonyl]amino]ethyl]amino]carbonyl]-, 2-[(4,5-dihydro-1H-imidazol-2-yl)amino]ethyl ester 1-piperidinecarboxylic acid] the same measures were 8.2 nM and 1500 nM.
For the compound `O=C(O)CC(NC(=O)C1CCN(C(=O)OCCNC2=NCCN2)CC1)c1ccc2c(c1)OCO2` (centres unmarked) [Compound 29], the figures for the IC50 (at Human αvβ3; in experiment [1]) were 34 nM and 210 nM, respectively.
Taken in the same sequence, the figures for `O=C(O)C[C@H](NC(=O)C1CCN(C(=O)CCCNc2ccccn2)CC1)c1cccnc1` [Compound 30] were 140 nM and 56000 nM.
Taken in the same sequence, the figures for `O=C(O)CC(NC(=O)C1CCN(C(=O)OCCNC2=NCCN2)CC1)c1cccnc1` (centres unmarked) [Compound 31] were 29 nM and 4200 nM.
For `O=C(O)CC(NC(=O)C1CCN(C(=O)CCCNC2=NCCN2)CC1)c1cccc(F)c1` (centres unmarked) [Compound 32] the same measures were 120 nM and 3600 nM.
With `O=C(O)C[C@H](NC(=O)C1CCN(C(=O)CCCNC2=NCCN2)CC1)c1cccnc1` [Compound 33], the figures for the IC50 (on Human αvβ3; in experiment [1]) were 19 nM and 1800 nM, respectively.
For the compound `O=C(O)CC(NC(=O)C1CCN(C(=O)OCCNC2=NCCN2)CC1)c1cc(F)cc(F)c1` (centres unmarked) [Compound 35], the IC50 was 140 nM on Human αvβ3 and 1600 nM in experiment [1].
Take `O=C(O)CC(NC(=O)C1CCN(C(=O)CCCNC2=NCCN2)CC1)c1cccc2ccccc12` (centres unmarked) [Compound 36]: the IC50 is more than 300 nM at Human αvβ3 and 12000 nM in experiment [1].
`O=C(O)CC(NC(=O)C1CCN(C(=O)CCCNC2=NCCN2)CC1)c1ccc2ccccc2c1` (centres unmarked) [Compound 37]: the IC50 worked out at 290 nM at Human αvβ3 and 1700 nM in experiment [1].
For `O=C(O)CC(NC(=O)C1CCN(C(=O)CCCNC2=NCCN2)CC1)c1cc(F)cc(F)c1` (centres unmarked) [Compound 38] the same measures were more than 300 nM and 3300 nM.
On to `O=C(O)C[C@H](NC(=O)C1CCN(C(=O)OCCNC2=NCCN2)CC1)c1cnc2ccccc2c1` [Compound 39, β-[[[1-[[2-[(4,5-dihydro-1H-imidazol-2-yl)amino]ethoxy]carbonyl]-4-piperidinyl]carbonyl]amino]-, (β^3S)-3-quinolinepropanoic acid], for which the IC50 turned out to be 2.3 nM on Human αvβ3 and 36 nM in experiment [1].
